# Experimental data from patent US12419962B2, “Quinazolines, pharmaceutical compositions, and therapeutic applications” (BioTheryX, Inc., priority 2022, dated 2025).
# Target: T1, HiBiT-tagged endogenous SOS1 protein (Homo sapiens, UniProt Q07889)
# T1 construct: HEK293 cells were engineered to express a HiBiT-tagged endogenous SOS1 protein; endogenous in cells; host or cells: HEK293 cells, engineered so that endogenous SOS1 carries a HiBiT tag
# T1 sequence (Q07889 1-1333): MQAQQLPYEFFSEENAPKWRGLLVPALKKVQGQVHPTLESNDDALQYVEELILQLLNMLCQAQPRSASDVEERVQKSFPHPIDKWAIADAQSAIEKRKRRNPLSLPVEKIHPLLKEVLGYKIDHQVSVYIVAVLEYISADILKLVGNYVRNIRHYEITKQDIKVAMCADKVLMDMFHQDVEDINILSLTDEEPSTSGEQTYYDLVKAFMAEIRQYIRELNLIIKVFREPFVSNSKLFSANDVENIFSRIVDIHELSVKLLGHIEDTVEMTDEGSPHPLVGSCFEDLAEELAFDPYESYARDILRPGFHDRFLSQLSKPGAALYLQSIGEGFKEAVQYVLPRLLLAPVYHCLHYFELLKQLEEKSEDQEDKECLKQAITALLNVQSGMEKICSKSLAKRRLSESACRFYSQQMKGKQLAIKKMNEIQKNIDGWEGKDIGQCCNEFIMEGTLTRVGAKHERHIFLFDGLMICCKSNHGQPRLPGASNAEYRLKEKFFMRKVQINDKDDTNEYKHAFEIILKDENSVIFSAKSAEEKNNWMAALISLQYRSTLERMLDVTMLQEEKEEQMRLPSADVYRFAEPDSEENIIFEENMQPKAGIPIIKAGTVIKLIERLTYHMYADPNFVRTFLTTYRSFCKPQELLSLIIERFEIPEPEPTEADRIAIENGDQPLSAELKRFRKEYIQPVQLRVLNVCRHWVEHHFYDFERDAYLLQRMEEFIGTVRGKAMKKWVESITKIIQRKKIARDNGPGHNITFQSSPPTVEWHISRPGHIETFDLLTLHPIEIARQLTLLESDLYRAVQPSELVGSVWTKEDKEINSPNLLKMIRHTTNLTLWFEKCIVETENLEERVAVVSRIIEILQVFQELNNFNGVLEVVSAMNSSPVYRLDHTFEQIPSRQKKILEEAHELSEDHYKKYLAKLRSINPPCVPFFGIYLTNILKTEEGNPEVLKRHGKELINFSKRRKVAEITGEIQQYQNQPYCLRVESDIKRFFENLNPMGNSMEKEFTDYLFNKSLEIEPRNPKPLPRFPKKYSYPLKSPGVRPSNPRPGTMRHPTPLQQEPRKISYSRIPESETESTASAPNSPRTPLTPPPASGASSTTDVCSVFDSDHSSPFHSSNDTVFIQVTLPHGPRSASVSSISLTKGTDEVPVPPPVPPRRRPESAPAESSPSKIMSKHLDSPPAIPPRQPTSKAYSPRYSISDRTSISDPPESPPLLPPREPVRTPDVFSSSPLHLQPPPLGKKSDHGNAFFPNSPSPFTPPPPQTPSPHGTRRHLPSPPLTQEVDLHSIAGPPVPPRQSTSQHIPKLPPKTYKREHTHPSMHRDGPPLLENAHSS
# Assay: SOS1-HiBiT Degradation Assay
# Type: cell-based
# Conditions: HEK293 cells expressing HiBiT-tagged endogenous SOS1, 6 h treatment
# Method: HEK293 cells were engineered to express a HiBiT-tagged endogenous SOS1 protein. The cells were cultured in DMEM media supplemented with 10% fetal bovine serum, streptomycin, and penicillin. The cells were seeded in a white walled 384-well plate at 12,500 cells/well in 50 μL culture media. The cells were incubated at 37° C. under 5% CO2 overnight. The cells were then treated with DMSO (control) or a compound for 6 h at 37° C. under 5% CO2. After incubation, 25 μL media was removed from each cell and 25 μL NANO-GLO® lytic detection reagent was added to each well. After a 10 min incubation with shaking, luminescence was measured using a PERKINELMER ENVISION® multimode plate reader.
# The results are summarized in Table 1, where “A” represents a DC50 of no greater than 100 nM, “B” represents a DC50 of greater than 100 nM and no greater than 500 nM; “C” represents a DC50 of greater than 500 nM and no greater than 2 μM; and “D” represents a DC50 of greater than 2 μM; and where “A′” represents a Dmax of no less than 70%, “B′” represents a Dmax of less than 70% and no less than 50%; “C′” represents a Dmax of less than 50% and no less than 30%; and “D′” represents a Dmax of less than 30%. Compounds C1 and C2 are (R)-2-(3-(1-((6,7-dimethoxy-2-methylquinazolin-4-yl)amino)ethyl)phenyl)-2,2-difluoroethan-1-ol and (R)—N-(1-(3-amino-5-(trifluoromethyl)phenyl)ethyl)-6,7-dimethoxy-2-methylquinazolin-4-amine, respectively.
SMILES,DC50,Dmax
"COc1cc2nc(C)nc(N[C@H](C)c3cccc(C(F)(F)CO)c3)c2cc1OC [Compound C1, (R)-2-(3-(1-((6,7-dimethoxy-2-methylquinazolin-4-yl)amino)ethyl)phenyl)-2,2-difluoroethan-1-ol]",> 10 µM,0%
"COc1cc2nc(C)nc(N[C@H](C)c3cc(N)cc(C(F)(F)F)c3)c2cc1OC [Compound C2, (R)—N-(1-(3-amino-5-(trifluoromethyl)phenyl)ethyl)-6,7-dimethoxy-2-methylquinazolin-4-amine]",> 10 µM,0%
